The values below come from patent publication US20070134165A1 (Altana Pharma AG, priority 2004, published 2007).

Series [1] concerns glucocorticosteroid receptor. As to conditions: ratio versus ciclesonide; cited from earlier work.
The conditions of series [2]: cited from earlier work.
The next series has as its system asthma patients. Conditions: ex-smokers, ciclesonide versus budesonide; cited from earlier work.
The next series deals with patients with asthma. The series is described as follows: Double-blind, randomized, parallel group clinical study, ciclesonide vs budesonide once daily in the evening for 12 weeks. It counts as in vivo. As to conditions: for FEV1 / FVC / PEF / morning PEF: ex smokers, ITT, LSmeans. From the text:
Another objective was to provide information on the safety and tolerability of ciclesonide.

Where [3] appears, read: end of 12 weeks, CIC 200 μg or BUD 400 μg once daily in the evening.

Consider `C[C@]12C=CC(=O)C=C1CC[C@@H]1[C@@H]2[C@@H](O)C[C@@]2(C)[C@H]1C[C@H]1O[C@@H](C3CCCCC3)O[C@]12C(=O)CO` (mixture of isomers) [desisobutyryl-ciclesonide, 16α,17-(22R,S)-cyclohexylmethylenedioxy-11β,21-dihydroxypregna-1,4-diene-3,20-dione], for which the “affinity to the glucocorticosteroid receptor relative to ciclesonide” value in series [1] is listed as “approximately 100 times higher”.

Regarding `CC(C)C(=O)OCC(=O)[C@@]12O[C@H](C3CCCCC3)O[C@@H]1C[C@H]1[C@@H]3CCC4=CC(=O)C=C[C@]4(C)[C@H]3[C@@H](O)C[C@@]12C` [Ciclesonide, [11β,16α(R)]-16,17-[(Cyclohexylmethylene)bis(oxy)]-11-hydroxy-21-(2-methyl-1-oxo-propoxy)pregna-1,4-diene-3,20-dione], in series [2] (in vivo), the “concentration of the drug in the lungs” value is listed as “high”, the “metabolism by liver oxidases” value is recorded as “very high”, the plasma half-life result is reported as “low” and the systemic activity entry is listed as “low”. In series [2] (oral), the “absorption after oral administration” value is given as “only moderately absorbed”. Also, the “subgroup analysis of FEV1” value in the series on asthma patients was “trend for superiority of ciclesonide over budesonide”. For the same molecule, the “change in FEV1, subgroup analysis” value in the series on patients with asthma ((ex-)smokers subgroup, after 12 weeks of treatment) is “statistically significant increases”. Further, in the series on patients with asthma (setting [3]), the FEV1 is 2.773 L, the FVC was found to be 3.604 L, the PEF is given as 391 L/min and the morning PEF amounted to 416 L/min. Moreover, in the series with patients with asthma (start of treatment), the FEV1 came to 2.336 L, the FVC stood at 3.146 L, the PEF came to 310 L/min and the morning PEF amounted to 370 L/min. Besides, the “improvement in lung function compared to treatment with budesonide” value in the series on patients with asthma (smoking asthmatic patients) is listed as “superior improvements in lung function”.

Consider `CCCC1O[C@@H]2C[C@H]3[C@@H]4CCC5=CC(=O)C=C[C@]5(C)[C@H]4[C@@H](O)C[C@]3(C)[C@]2(C(=O)CO)O1` (stereo partly shown) [budesonide], for which, in the series on patients with asthma (setting [3]), the FEV1 is on record as 2.602 L, the FVC amounted to 3.385 L, the PEF is listed as 357 L/min and the morning PEF was found to be 391 L/min. Further, in the series on patients with asthma (start of treatment), the FEV1 is on record as 2.339 L, the FVC was determined as 3.146 L, the PEF was found to be 310 L/min and the morning PEF worked out at 370 L/min.
